Results taken from article PMC5218480 (PLoS ONE, 2017).

Tested on: MV-4-11 cells
Experiment: Gene expression microarray analysis (Affymetrix PrimeView) and GSEA
Type: cell-based, human
Design: RFU PODN (11730768_x_at) / Fold change /veh PODN (11730768_x_at) / RFU LINC00158 (11744669_a_at) / Fold change /veh LINC00158 (11744669_a_at) / RFU DUSP10 (11751237_a_at) / Fold change /veh DUSP10 (11751237_a_at) / RFU ID3 (11757404_x_at) / Fold change /veh ID3 (11757404_x_at) / RFU PLEKHG5 (11737974_s_at) / Fold change /veh PLEKHG5 (11737974_s_at) / RFU LRRC4B (11730491_at) / Fold change /veh LRRC4B (11730491_at) / RFU GIMAP4 (11747438_a_at) / Fold change /veh GIMAP4 (11747438_a_at) / RFU KRT8 (11758183_x_at) / Fold change /veh KRT8 (11758183_x_at) / RFU CNN1 (11734310_a_at) / Fold change /veh CNN1 (11734310_a_at) / RFU VPS37D (11726825_at) / Fold change /veh VPS37D (11726825_at) / RFU C10orf10 (11716522_x_at) / Fold change /veh C10orf10 (11716522_x_at) / RFU KIR2DL2 /// KIR2DL4 /// KIR2DL5A /// KIR2DL5B /// KIR2DS1 /// KIR2DS2 /// KIR2DS3 /// KIR2DS4 /// KIR3DL3 /// KIR3DL3 /// KIR3DS1 (11738374_at) / Fold change /veh KIR2DL2 /// KIR2DL4 /// KIR2DL5A /// KIR2DL5B /// KIR2DS1 /// KIR2DS2 /// KIR2DS3 /// KIR2DS4 /// KIR3DL3 /// KIR3DL3 /// KIR3DS1 (11738374_at) / RFU C1QL1 (11718748_at) / Fold change /veh C1QL1 (11718748_at) / RFU TMPRSS4 (11747572_a_at) / Fold change /veh TMPRSS4 (11747572_a_at) / RFU HAMP (11756126_x_at) / Fold change /veh HAMP (11756126_x_at) / RFU RNFT2 (11725882_a_at) / Fold change /veh RNFT2 (11725882_a_at) / RFU NR4A2 (11747474_a_at) / Fold change /veh NR4A2 (11747474_a_at) / RFU ABCC12 (11746883_a_at) / Fold change /veh ABCC12 (11746883_a_at) / RFU TMEM136 (11760407_x_at) / Fold change /veh TMEM136 (11760407_x_at) / RFU CLDN22 /// WWC2 (11732394_at) / Fold change /veh CLDN22 /// WWC2 (11732394_at) / RFU HLA-DPB1 (11760878_x_at) / Fold change /veh HLA-DPB1 (11760878_x_at) / RFU SPINT1 (11716480_a_at) / Fold change /veh SPINT1 (11716480_a_at) / RFU GAP43 (11754022_s_at) / Fold change /veh GAP43 (11754022_s_at) / RFU A4GNT (11735810_at) / Fold change /veh A4GNT (11735810_at) / RFU PRB3 (11715151_x_at) / Fold change /veh PRB3 (11715151_x_at) / RFU TUBB4B (11761932_at) / Fold change /veh TUBB4B (11761932_at) / RFU CAPN14 (11732068_a_at) / Fold change /veh CAPN14 (11732068_a_at) / RFU TMCC2 (11721928_a_at) / Fold change /veh TMCC2 (11721928_a_at) / RFU IRGQ (11745062_a_at) / Fold change /veh IRGQ (11745062_a_at) / RFU FAM174B (11720279_a_at) / Fold change /veh FAM174B (11720279_a_at) / RFU TMPRSS4 (11748680_a_at) / Fold change /veh TMPRSS4 (11748680_a_at) / RFU FAM212B (11763350_a_at) / Fold change /veh FAM212B (11763350_a_at) / RFU PLEKHG5 (11743358_a_at) / Fold change /veh PLEKHG5 (11743358_a_at) / RFU ZSCAN30 (11745921_a_at) / Fold change /veh ZSCAN30 (11745921_a_at) / RFU CMKLR1 (11741424_a_at) / Fold change /veh CMKLR1 (11741424_a_at) / RFU LOC101060620 /// MAPK8IP1 (11723275_at) / Fold change /veh LOC101060620 /// MAPK8IP1 (11723275_at) / RFU SPTSSB (11747773_x_at) / Fold change /veh SPTSSB (11747773_x_at) / RFU PRSS12 (11739890_at) / Fold change /veh PRSS12 (11739890_at) / RFU BIN1 (11741810_x_at) / Fold change /veh BIN1 (11741810_x_at) / RFU WNT11 (11732464_a_at) / Fold change /veh WNT11 (11732464_a_at) / RFU C10orf10 (11716521_a_at) / Fold change /veh C10orf10 (11716521_a_at) / RFU C5orf56 (11738089_at) / Fold change /veh C5orf56 (11738089_at) / RFU CYB561 (11721691_x_at) / Fold change /veh CYB561 (11721691_x_at) / RFU ANKRD19P (11752326_a_at) / Fold change /veh ANKRD19P (11752326_a_at) / RFU OR2T12 /// OR2T33 /// OR2T8 (11738714_s_at) / Fold change /veh OR2T12 /// OR2T33 /// OR2T8 (11738714_s_at) / RFU VCAN (11748164_a_at) / Fold change /veh VCAN (11748164_a_at) / RFU JSRP1 (11732532_at) / Fold change /veh JSRP1 (11732532_at) / RFU KRTAP10-11 (11738290_x_at) / Fold change /veh KRTAP10-11 (11738290_x_at) / RFU MYO3A (11730013_a_at) / Fold change /veh MYO3A (11730013_a_at) / RFU EBF3 (11725865_a_at) / Fold change /veh EBF3 (11725865_a_at) / RFU CAMK2N1 (11719241_x_at) / Fold change /veh CAMK2N1 (11719241_x_at) / RFU C5orf56 (11738088_a_at) / Fold change /veh C5orf56 (11738088_a_at) / RFU OLFML3 (11715873_a_at) / Fold change /veh OLFML3 (11715873_a_at) / RFU LOC100653217 /// NTM (11731650_a_at) / Fold change /veh LOC100653217 /// NTM (11731650_a_at) / RFU MAPK11 (11762145_a_at) / Fold change /veh MAPK11 (11762145_a_at) / RFU FIZ1 (11724087_x_at) / Fold change /veh FIZ1 (11724087_x_at) / RFU OASL (11726364_x_at) / Fold change /veh OASL (11726364_x_at) / RFU SOX15 (11748057_x_at) / Fold change /veh SOX15 (11748057_x_at) / RFU CD79A (11719716_a_at) / Fold change /veh CD79A (11719716_a_at) / RFU HIST1H1D (11736915_at) / Fold change /veh HIST1H1D (11736915_at) / RFU CASKIN2 (11723855_a_at) / Fold change /veh CASKIN2 (11723855_a_at) / RFU LOC730098 (11760151_x_at) / Fold change /veh LOC730098 (11760151_x_at) / RFU OR4N2 (11742367_at) / Fold change /veh OR4N2 (11742367_at) / RFU PRRT2 (11749266_a_at) / Fold change /veh PRRT2 (11749266_a_at) / RFU SNX32 (11753110_a_at) / Fold change /veh SNX32 (11753110_a_at) / RFU CDHR5 (11726645_a_at) / Fold change /veh CDHR5 (11726645_a_at) / RFU RCAN1 (11760418_a_at) / Fold change /veh RCAN1 (11760418_a_at) / RFU FAM167A (11723789_a_at) / Fold change /veh FAM167A (11723789_a_at) / RFU FAM26E (11764081_at) / Fold change /veh FAM26E (11764081_at) / RFU ISYNA1 (11749810_s_at) / Fold change /veh ISYNA1 (11749810_s_at) / RFU ACY1 (11761880_at) / Fold change /veh ACY1 (11761880_at) / RFU 11764098_at / Fold change /veh 11764098_at / RFU SAMD14 (11745864_x_at) / Fold change /veh SAMD14 (11745864_x_at) / RFU NPB (11741838_a_at) / Fold change /veh NPB (11741838_a_at) / RFU TMPRSS6 (11731388_a_at) / Fold change /veh TMPRSS6 (11731388_a_at) / RFU KRTAP10-2 (11738614_at) / Fold change /veh KRTAP10-2 (11738614_at) / RFU ARHGAP8 /// PRR5-ARHGAP8 (11727945_x_at) / Fold change /veh ARHGAP8 /// PRR5-ARHGAP8 (11727945_x_at) / RFU KRTAP5-7 /// NADSYN1 (11734609_at) / Fold change /veh KRTAP5-7 /// NADSYN1 (11734609_at) / RFU RASL12 (11751679_a_at) / Fold change /veh RASL12 (11751679_a_at) / RFU CDKN2B (11736163_a_at) / Fold change /veh CDKN2B (11736163_a_at) / RFU PRF1 (11729649_at) / Fold change /veh PRF1 (11729649_at) / RFU, ZNF638 /// ZNF638-IT1 / Fold change vs veh, ZNF638 /// ZNF638-IT1 / RFU, PANK3 / Fold change vs veh, PANK3 / RFU, SH3YL1 / Fold change vs veh, SH3YL1 / RFU, ZEB2 / Fold change vs veh, ZEB2 / RFU, NRIP1 / Fold change vs veh, NRIP1 / RFU, PTTG1IP / Fold change vs veh, PTTG1IP / RFU, CAPN2 / Fold change vs veh, CAPN2 / RFU, MED14 / Fold change vs veh, MED14 / RFU, SNORA58 / Fold change vs veh, SNORA58 / RFU, C1orf63 / Fold change vs veh, C1orf63 / RFU, LRRFIP1 / Fold change vs veh, LRRFIP1 / RFU, NDUFAF7 / Fold change vs veh, NDUFAF7 / RFU, SLC12A2 / Fold change vs veh, SLC12A2 / RFU, IBTK / Fold change vs veh, IBTK / RFU, ESF1 / Fold change vs veh, ESF1 / Fold change vs veh, TMEM50B / RFU, TAOK1 / Fold change vs veh, TAOK1 / RFU, ACBD3 / Fold change vs veh, ACBD3 / RFU, TMA16 / Fold change vs veh, TMA16 / RFU, RWDD3 / Fold change vs veh, RWDD3 / RFU, BCAT1 / Fold change vs veh, BCAT1 / RFU, EDEM3 / Fold change vs veh, EDEM3 / RFU, TMEM33 / Fold change vs veh, TMEM33 / RFU, WDR75 / Fold change vs veh, WDR75 / RFU, AHCTF1 / Fold change vs veh, AHCTF1 / RFU, TFRC / Fold change vs veh, TFRC / RFU, ZDHHC17 / Fold change vs veh, ZDHHC17 / RFU, NOM1 / Fold change vs veh, NOM1 / RFU, ARL8B / Fold change vs veh, ARL8B / RFU, ZBTB11 / Fold change vs veh, ZBTB11 / RFU, TAMM41 / Fold change vs veh, TAMM41 / RFU, KIAA1704 /// LOC100996395 / Fold change vs veh, KIAA1704 /// LOC100996395 / RFU, ING1 / Fold change vs veh, ING1 / RFU, TRMT61B / Fold change vs veh, TRMT61B / RFU, FUBP3 / Fold change vs veh, FUBP3 / RFU, TP53 / Fold change vs veh, TP53 / RFU, TNKS2 / Fold change vs veh, TNKS2 / RFU, ZFP14 / Fold change vs veh, ZFP14 / RFU, ACTR2 / Fold change vs veh, ACTR2 / RFU, PPP3R1 / Fold change vs veh, PPP3R1 / RFU, PIK3R1 / Fold change vs veh, PIK3R1 / RFU, HNRNPA1 / Fold change vs veh, HNRNPA1 / RFU, RNF170 / Fold change vs veh, RNF170 / RFU, ZNF28 / Fold change vs veh, ZNF28 / RFU, RNGTT / Fold change vs veh, RNGTT / RFU, OGT / Fold change vs veh, OGT / RFU, BRD1 / Fold change vs veh, BRD1 / RFU, MARS / Fold change vs veh, MARS / RFU, ZNF655 / Fold change vs veh, ZNF655 / RFU, FAHD1 / Fold change vs veh, FAHD1 / RFU, BDP1 / Fold change vs veh, BDP1 / RFU, LRRCC1 / Fold change vs veh, LRRCC1 / RFU, ARID1A / Fold change vs veh, ARID1A / RFU, ZNF146 / Fold change vs veh, ZNF146 / RFU, ZNF330 / Fold change vs veh, ZNF330 / RFU, GPN3 / Fold change vs veh, GPN3 / RFU, C9orf123 / Fold change vs veh, C9orf123 / RFU, N4BP2L2 / Fold change vs veh, N4BP2L2 / RFU, ARFIP1 / Fold change vs veh, ARFIP1 / RFU, FAM179B / Fold change vs veh, FAM179B / RFU, BCL10 / Fold change vs veh, BCL10 / RFU, UHRF1BP1L / Fold change vs veh, UHRF1BP1L / RFU, BET1 / Fold change vs veh, BET1 / RFU, CNOT2 / Fold change vs veh, CNOT2 / RFU, ZNF268 / Fold change vs veh, ZNF268 / Fold change vs veh, ZNF507 / RFU, DGCR2 / Fold change vs veh, DGCR2 / RFU, WDSUB1 / Fold change vs veh, WDSUB1 / Fold change vs veh, HSP90B1 /// MIR3652 / RFU, ADSS / Fold change vs veh, ADSS / RFU, GK / Fold change vs veh, GK / RFU, ZNF148 / Fold change vs veh, ZNF148 / RFU, TAF9 / Fold change vs veh, TAF9 / RFU, SLC1A5 / Fold change vs veh, SLC1A5 / RFU, SLMO2 / Fold change vs veh, SLMO2 / RFU, ABCC4 / Fold change vs veh, ABCC4 / RFU, LOC101060439 /// RAP1B / Fold change vs veh, LOC101060439 /// RAP1B / RFU, RFX7 / Fold change vs veh, RFX7 / RFU, GTPBP10 / Fold change vs veh, GTPBP10 / RFU, CNEP1R1 / Fold change vs veh, CNEP1R1 / RFU, BIVM-ERCC5 /// ERCC5 / Fold change vs veh, BIVM-ERCC5 /// ERCC5 / RFU, ILF3 / Fold change vs veh, ILF3 / RFU 11762660_at / Fold change /veh 11762660_at / RFU VCAN (11757783_s_at) / Fold change /veh VCAN (11757783_s_at) / RFU DDX43 (11728927_at) / Fold change /veh DDX43 (11728927_at) / RFU KRT8 (11758188_x_at) / Fold change /veh KRT8 (11758188_x_at) / RFU NKD1 (11759106_at) / Fold change /veh NKD1 (11759106_at) / RFU SRD5A1 (11742802_a_at) / Fold change /veh SRD5A1 (11742802_a_at) / RFU TPSAB1 /// TPSB2 (11721975_s_at) / Fold change /veh TPSAB1 /// TPSB2 (11721975_s_at) / RFU GSTM3 (11746129_a_at) / Fold change /veh GSTM3 (11746129_a_at) / RFU IL23R (11737362_x_at) / Fold change /veh IL23R (11737362_x_at) / RFU TMEM51 (11727254_a_at) / Fold change /veh TMEM51 (11727254_a_at) / RFU PIWIL2 (11732686_x_at) / Fold change /veh PIWIL2 (11732686_x_at) / RFU ORM1 (11744905_x_at) / Fold change /veh ORM1 (11744905_x_at) / RFU CCDC152 (11743942_at) / Fold change /veh CCDC152 (11743942_at) / RFU ECM1 (11717891_a_at) / Fold change /veh ECM1 (11717891_a_at) / RFU IL23R (11748794_a_at) / Fold change /veh IL23R (11748794_a_at) / RFU TNFAIP8L3 (11732012_x_at) / Fold change /veh TNFAIP8L3 (11732012_x_at) / RFU MBOAT4 (11741988_at) / Fold change /veh MBOAT4 (11741988_at) / RFU 11764193_at / Fold change /veh 11764193_at / RFU TMEM53 (11763286_at) / Fold change /veh TMEM53 (11763286_at) / RFU MAGEB2 (11727129_at) / Fold change /veh MAGEB2 (11727129_at) / RFU TMEM200A (11744735_a_at) / Fold change /veh TMEM200A (11744735_a_at) / RFU CCDC152 (11751479_a_at) / Fold change /veh CCDC152 (11751479_a_at) / RFU FAM211A (11726209_a_at) / Fold change /veh FAM211A (11726209_a_at) / RFU RGS16 (11746705_a_at) / Fold change /veh RGS16 (11746705_a_at) / RFU VCAN (11755009_s_at) / Fold change /veh VCAN (11755009_s_at) / RFU RHOB (11743442_s_at) / Fold change /veh RHOB (11743442_s_at) / RFU RGS16 (11720943_a_at) / Fold change /veh RGS16 (11720943_a_at) / RFU RGS16 (11720944_at) / Fold change /veh RGS16 (11720944_at) / RFU, VPS4B / Fold change vs veh, VPS4B / RFU, CREB1 / Fold change vs veh, CREB1 / RFU, DNAJC13 / Fold change vs veh, DNAJC13 / RFU, GNAQ / Fold change vs veh, GNAQ / RFU, CDK5R1 / Fold change vs veh, CDK5R1 / RFU, ZRANB3 / Fold change vs veh, ZRANB3 / RFU, CUL4A / Fold change vs veh, CUL4A / RFU, CCNY / Fold change vs veh, CCNY / RFU, UFL1 / Fold change vs veh, UFL1 / RFU, COG3 / Fold change vs veh, COG3 / RFU, DIAPH2 / Fold change vs veh, DIAPH2 / RFU, SKA2 / Fold change vs veh, SKA2 / RFU, AFF3 / Fold change vs veh, AFF3 / RFU, LMF1 / Fold change vs veh, LMF1 / RFU, IPO11 / Fold change vs veh, IPO11 / RFU, DFFB / Fold change vs veh, DFFB / RFU, FOXP1 / Fold change vs veh, FOXP1 / RFU, CARD8 / Fold change vs veh, CARD8 / RFU, STRN3 / Fold change vs veh, STRN3 / RFU, ADK / Fold change vs veh, ADK / RFU, RASSF2 / Fold change vs veh, RASSF2 / RFU, WIPF1 / Fold change vs veh, WIPF1 / RFU, LARP1B / Fold change vs veh, LARP1B / RFU, RASA1 / Fold change vs veh, RASA1 / RFU, RB1 / Fold change vs veh, RB1 / RFU, PPFIA1 / Fold change vs veh, PPFIA1 / RFU, MAT2A / Fold change vs veh, MAT2A / RFU, CCT5 / Fold change vs veh, CCT5 / RFU, WDR92 / Fold change vs veh, WDR92 / RFU, CUX1 / Fold change vs veh, CUX1 / RFU, TTC7A / Fold change vs veh, TTC7A / RFU, TMEM135 / Fold change vs veh, TMEM135 / RFU, DEPTOR / Fold change vs veh, DEPTOR / RFU, CPM / Fold change vs veh, CPM / RFU, DNAJB6 / Fold change vs veh, DNAJB6 / RFU, CACNA2D3 / Fold change vs veh, CACNA2D3 / RFU, DTX4 / Fold change vs veh, DTX4 / RFU, TFCP2 / Fold change vs veh, TFCP2 / RFU, GMCL1 /// GMCL1P1 / Fold change vs veh, GMCL1 /// GMCL1P1 / RFU, AEBP2 / Fold change vs veh, AEBP2 / RFU, SNHG1 /// SNORD22 /// SNORD25 /// SNORD26 /// SNORD27 /// SNORD28 /// SNORD29 /// SNORD31 / Fold change vs veh, SNHG1 /// SNORD22 /// SNORD25 /// SNORD26 /// SNORD27 /// SNORD28 /// SNORD29 /// SNORD31 / Fold change (Aza/veh), C12orf56 (ProbeSet 11735607_a_at) / Fold change (ACY-1035/veh), C12orf56 (ProbeSet 11735607_a_at) / Fold change (Aza/veh), FGFR1OP (ProbeSet 11751329_s_at) / Fold change (ACY-1035/veh), FGFR1OP (ProbeSet 11751329_s_at) / Fold change (Aza/veh), VPS36 (ProbeSet 11739960_a_at) / Fold change (ACY-1035/veh), VPS36 (ProbeSet 11739960_a_at) / RFU SYPL1 (11715823_x_at) / Fold change /veh SYPL1 (11715823_x_at) / RFU IGFBP7 (11715501_s_at) / Fold change /veh IGFBP7 (11715501_s_at) / RFU REEP3 (11722064_at) / Fold change /veh REEP3 (11722064_at) / RFU IGLL1 (11728026_x_at) / Fold change /veh IGLL1 (11728026_x_at): dose or concentration left out as unconfirmed
Conditions: ProbeSet 11728443_a_at; LIST B

## Nc1ncn([C@@H]2O[C@H](CO)[C@@H](O)[C@H]2O)c(=O)n1 [azacitidine]
  RFU, TAOK1: 59.03 RFU
